Test results published in patent publication US20220323490A1, “PREVENTION OF DISEASES IN HONEYBEES” (Arkema Inc., priority 2019, published 2022).
“Also recorded” adds a separate entry of the source. Where two headings read alike, the source gives them in different places.

Columns and labels:
[1] = tested on: honeybee (Apis mellifera) workers; details: for X3, best estimate of EC5 concentration (Molar hydrogen peroxide): cubic model solution; for EC5 (Percent): percent H2O2 calculated from X3; for Predicted LC50 Log10 Molar (±se) / Predicted LC50 (Molar) / Predicted LC50 (Percent): oral, in 2M sucrose; for Predicted LC50 Log10 Molar (±se): Probit analysis; for Predicted LC50 (Molar): inverse of log10 data; for Predicted LC50 (Percent): percent hydrogen peroxide
Procedure: The twenty-four and forty-eight hour oral lethal concentration (LC50) of formulated hydrogen peroxide (HP) was determined for one-week and two-week old honeybee (Apis mellifera) workers fed a series of solutions of HP diluted in 2 Molar (M) sucrose.
Five hydrogen peroxide (HP) solutions at 4.7, 3.7, 2.7, 1.7, 0.7 M HP in 2 Molar (M) sucrose, and a 0.00 M HP 2M sucrose solution were prepared using 35% food grade hydrogen peroxide, molecular grade sucrose (Sigma Aldrich, USA), and molecular grade water (Sigma Aldrich, USA).
Approximately 200 bees were collected into several wooden cages, supplied with ad libitum HP-free 2M sucrose solution, water, and BeePro® supplemented pollen patty. Experimental trials commenced at seven and fourteen days after newly emerged honeybees were placed in cages.
Following this, an EC5 was calculated by solving the cubic (sigmoidal) model for ‘x’ given an intercept term constrained to zero (concentration) and a ‘y’ value of 0.05.

[2] = Stability of hydrogen peroxide in sugar solution; details: ambient temperature
[3] = one-week old honeybees, 24 Hour
[4] = one-week old honeybees, 48 Hour
[5] = two-week old honeybees, 24 Hour
[6] = two-week old honeybees, 48 Hour

For OO [hydrogen peroxide], which “Mean (±se) Mortality” value ([1]; 0.7 Molar H2O2 in 2M sucrose, one-week old honeybees, 24 Hour) is on record?
The value was 3.38 (1.38).

What about the “Mean (±se) Mortality” value ([1]; 0.7 Molar H2O2 in 2M sucrose, one-week old honeybees, 48 Hour) of the same compound?
The value was 9.63 (2.23).

And the “Mean (±se) Mortality” value ([1]; 0.7 Molar H2O2 in 2M sucrose, two-week old honeybees, 24 Hour)?
Its value is 7.00 (2.19).

And the “Mean (±se) Mortality” value ([1]; 0.7 Molar H2O2 in 2M sucrose, two-week old honeybees, 48 Hour)?
Its value is 12.75 (1.96).

What about the “Mean (±se) Mortality” value ([1]; 1.7 Molar H2O2 in 2M sucrose, one-week old honeybees, 24 Hour) of the same compound?
Its value is 10.25 (1.42).

What about the “Mean (±se) Mortality” value ([1]; 1.7 Molar H2O2 in 2M sucrose, one-week old honeybees, 48 Hour) of the same compound?
Its value is 18.13 (1.06).

And the “Mean (±se) Mortality” value ([1]; 1.7 Molar H2O2 in 2M sucrose, two-week old honeybees, 24 Hour)?
Its value is 12.00 (2.32).

What about the “Mean (±se) Mortality” value ([1]; 1.7 Molar H2O2 in 2M sucrose, two-week old honeybees, 48 Hour) of the same compound?
Its value is 16.25 (1.50).

What about the “Mean (±se) Mortality” value ([1]; 2.7 Molar H2O2 in 2M sucrose, one-week old honeybees, 24 Hour) of the same compound?
The value was 15.63 (1.19).

And the “Mean (±se) Mortality” value ([1]; 2.7 Molar H2O2 in 2M sucrose, one-week old honeybees, 48 Hour)?
Its value is 19.88 (1.63).

And the “Mean (±se) Mortality” value ([1]; 2.7 Molar H2O2 in 2M sucrose, two-week old honeybees, 24 Hour)?
Its value is 14.13 (2.12).

And the “Mean (±se) Mortality” value ([1]; 2.7 Molar H2O2 in 2M sucrose, two-week old honeybees, 48 Hour)?
The value was 19.50 (1.00).

And the “Mean (±se) Mortality” value ([1]; 3.7 Molar H2O2 in 2M sucrose, one-week old honeybees, 24 Hour)?
Its value is 15.25 (1.70).

And the “Mean (±se) Mortality” value ([1]; 3.7 Molar H2O2 in 2M sucrose, one-week old honeybees, 48 Hour)?
The value was 21.50 (0.96).

What about the “Mean (±se) Mortality” value ([1]; 3.7 Molar H2O2 in 2M sucrose, two-week old honeybees, 24 Hour) of the same compound?
The value was 16.63 (1.92).

What about the “Mean (±se) Mortality” value ([1]; 3.7 Molar H2O2 in 2M sucrose, two-week old honeybees, 48 Hour) of the same compound?
The value was 20.75 (0.53).

And the “Mean (±se) Mortality” value ([1]; 4.7 Molar H2O2 in 2M sucrose, one-week old honeybees, 24 Hour)?
Its value is 15.75 (1.53).

What about the “Mean (±se) Mortality” value ([1]; 4.7 Molar H2O2 in 2M sucrose, one-week old honeybees, 48 Hour) of the same compound?
Its value is 21.38 (0.99).

What about the “Mean (±se) Mortality” value ([1]; 4.7 Molar H2O2 in 2M sucrose, two-week old honeybees, 24 Hour) of the same compound?
The value was 17.88 (1.51).

What about the “Mean (±se) Mortality” value ([1]; 4.7 Molar H2O2 in 2M sucrose, two-week old honeybees, 48 Hour) of the same compound?
The value was 20.13 (1.36).

And the “honey bee mortality versus control group” value ([1]; all tested concentrations (0.7-4.7 M HP in 2M sucrose), Wilcoxon multiple comparisons P<0.001)?
The value was “significantly greater than mortality of honeybees in control group”.

And the “X3, best estimate of EC5 concentration (Molar hydrogen peroxide)” value (“X3, best estimate of EC5 concentration” for short) [1, 3]?
Its value is 0.21 Molar.

What about the “EC5 (Percent)” value [1, 3] of the same compound?
The value was 0.57%.

What about the “X3, best estimate of EC5 concentration” value [1, 4] of the same compound?
Its value is 0.15 Molar.

And the “EC5 (Percent)” value [1, 4]?
The value was 0.41%.

What about the “Predicted LC50 Log10 Molar (±se)” value [1, 3] of the same compound?
The value was 0.29 (0.02) Log10 Molar.

And the “Predicted LC50 (Molar)” value [1, 3]?
The value was 1.95 (0.09) Molar.

What about the “Predicted LC50 (Percent)” value [1, 3] of the same compound?
The value was 5.30 (0.25) Percent.

What about the “Predicted LC50 Log10 Molar (±se)” value [1, 4] of the same compound?
The value was −0.10 (0.03) Log10 Molar.

What about the “Predicted LC50 (Molar)” value [1, 4] of the same compound?
The value was 0.79 (0.05) Molar.

And the “Predicted LC50 (Percent)” value [1, 4]?
Its value is 2.15 (0.14) Percent.

What about the “Predicted LC50 Log10 Molar (±se)” value [1, 5] of the same compound?
The value was 0.15 (0.03) Log10 Molar.

And the “Predicted LC50 (Molar)” value [1, 5]?
Its value is 1.41 (0.10) Molar.

And the “Predicted LC50 (Percent)” value [1, 5]?
The value was 3.84 (0.28) Percent.

What about the “Predicted LC50 Log10 Molar (±se)” value [1, 6] of the same compound?
Its value is −0.25 (0.06) Log10 Molar.

And the “Predicted LC50 (Molar)” value [1, 6]?
The value was 0.56 (0.08) Molar.

What about the “Predicted LC50 (Percent)” value [1, 6] of the same compound?
The value was 1.52 (0.22) Percent.

What about the “X3, best estimate of EC5 concentration” value [1, 5] of the same compound?
The value was 0.20 Molar.

And the “EC5 (Percent)” value [1, 5]?
The value was 0.54%.

What about the “X3, best estimate of EC5 concentration” value [1, 6] of the same compound?
Its value is 0.15 Molar.

And the “EC5 (Percent)” value [1, 6]?
Its value is 0.41%.

And the “Stability (degradation) of hydrogen peroxide in sugar solution” value ([2]; 0.1% and 1.0% H2O2 in 50% (w/w) sucrose, over 7 weeks)?
Its value is “No degradation; also recorded: stable in a sugar solution”.

And the “Hydrogen peroxide concentration in sugar solution” value (“Hydrogen peroxide concentration” below) ([2]; nominal 0.1% H2O2 in 50% (w/w) sucrose, 10 days)?
The value was 0.134.

What about the “Hydrogen peroxide concentration” value ([2]; nominal 0.1% H2O2 in 50% (w/w) sucrose, 27 days) of the same compound?
The value was 0.134.

And the “Hydrogen peroxide concentration” value ([2]; nominal 0.1% H2O2 in 50% (w/w) sucrose, 51 days)?
Its value is 0.130.

And the “Hydrogen peroxide concentration” value ([2]; nominal 0.1% H2O2 in 50% (w/w) sucrose, time 0)?
The value was 0.134.

What about the “Hydrogen peroxide concentration” value ([2]; nominal 1.0% H2O2 in 50% (w/w) sucrose, 10 days) of the same compound?
Its value is 1.089.

What about the “Hydrogen peroxide concentration” value ([2]; nominal 1.0% H2O2 in 50% (w/w) sucrose, 27 days) of the same compound?
Its value is 1.058.

And the “Hydrogen peroxide concentration” value ([2]; nominal 1.0% H2O2 in 50% (w/w) sucrose, 51 days)?
The value was 1.089.

What about the “Hydrogen peroxide concentration” value ([2]; nominal 1.0% H2O2 in 50% (w/w) sucrose, time 0) of the same compound?
The value was 1.077.
